Legend:
[1] = tested on: MOG-immunized mice developing chronic progressive EAE; assay: Acute onset EAE study, 28 days after EAE induction (Example 1); format: in vivo, C57BL/6 mice; settings: day 28; treatment from 3 weeks before EAE induction; clopidogrel oral, mecamylamine subcutaneous minipump; combination vs placebo p value less than 0.05
[2] = tested on: MOG-immunized mice developing chronic progressive EAE; assay: Chronic phase EAE study, 70 days post EAE induction (Example 1); format: in vivo, C57BL/6 mice; settings: Manova p<0.005; initial mean weights of all groups equal
Protocol: Prepare the emulsion containing MOG35-55 stock, PBS and CFA. The volume of MOG35-55 stock=[(The volume of the emulsion)×(1.5 g/L)]/[(3×10-3 mol/L)×(2581.6 g/mol)]; the volume of PBS=[(The volume of the emulsion)/2]−(The volume of MOG35-55 stock); The volume of CFA=(The volume of the emulsion)/2. The emulsion is prepared by diluting the MOG35-55 stock with PBS and then mix equal volumes of this diluent and CFA. The final concentration of MOG35-55 is 300 μg per 200 μL emulsion for each mouse. Air bubbles should be avoided and the syringe must be kept at 4° C. until injection. Before use the stability of the emulsion is tested by adding one drop into a beaker of water: if the drop remains as a solid clump and slowly dissipates, then the emulsion is stable and may be injected.
Mice are anesthetized with 2% Pentobarbital sodium (i.p injection, 70˜90 μL/mouse) and kept warm under infrared lamp. Injection of 200 ng Pertussis toxin in 200 μL PBS/mouse is performed (i.v.; tail vein) using a 1-mL syringe with 0.4-mm needle. The previously described emulsion is subcutaneously administered with a 1-mL syringe with 0.4-mm needle.
Mice are kept warm under infrared lamp to perform injection of 200 ng Pertussis toxin in 200 μL PBS via i.v. (tail vein) route, as described for MOG35-55 injection.
A chronic phase study is run for 70 days post EAE induction. […]

[3] = tested on: mouse EAE model (MOG35-55 immunization); assay: Mouse EAE model, acute oral treatment Day 14 to Day 28, global clinical score (Example 2); format: in vivo, C57L/6J female mice; settings: Day 16 to Day 28 after immunization, 1/60 of usual therapeutic doses (clopidogrel hydrogen sulfate 270 μg/kg/day, mecamylamine hydrochloride 9 μg/kg/day), vs EAE mice without treatment
Protocol: In this experiment, both drugs are equally diluted to ultra-low doses corresponding to 1/60 of their usual therapeutic doses, and importantly, both are administered orally. Protocols for EAE induction and clinical score calculations in this experiment are slightly modified and are described in detail below:
C57L/6J female mice (8 weeks old) are purchased from Janvier (France); after two weeks of habituation, female mice (10 weeks old) develop chronic paralysis after immunization with MOG (Myelin Oligodendrocyte Glycoprotein) peptide. The experimental encephalomyelitis is induced with the Hooke Kit MOG35-55/CFA Emulsion PTX (Pertussis toxin) for EAE Induction (EK-0110, EK-0115; Hooke laboratories). The control kit is CK-0115 (Hooke laboratories).
The day 0, two subcutaneous injections of 0.1 ml each are performed; one on upper back of the mouse and one in lower back. Each injection contains 100 μg of MOG35-55 peptide ([sequence]), 200 μg of inactivated Mycobacterium tuberculosis H37Ra and is emulsified in Complete Freund's adjuvant (CFA) (Hooke laboratories). The emulsion provides antigen needed to expand and differentiate MOG-specific autoimmune T cells. […]
The global score for each animal is determined by the addition of all the above mentioned categories. […]

| Compound | Histological examination: perivascular lymphocyte infiltrate inflammation (perivascular cuffing) in spinal section [1] | Weight gain, Post Hoc comparison with control group treated with placebo (vehicle) [2] | Global clinical score (tail, hind limb, fore limb and bladder scores) [3] |
| --- | --- | --- | --- |
| CNC1(C)C2CCC(C2)C1(C)C (stereo not drawn) [mecamylamine] | different degrees of perivascular inflammation | different from the control group | no positive effects |
| COC(=O)[C@H](c1ccccc1Cl)N1CCc2sccc2C1 [clopidogrel] | different degrees of perivascular inflammation | different from the control group | no positive effects |
